{"source": "patent US4965262A", "about": "“Method for treating or preventing locally periodontal disease” (Rohto Pharmaceutical Co., Ltd., priority 1987, dated 1990)", "key": {"[1]": {"assay": "Concentration of ofloxacin in periodontal fluid in the pockets after local administration", "format": "in vivo, volunteers", "procedure": "The preparations of Example 3 containing ofloxacin to be inserted into the periodontal pockets were locally administered to the pockets of volunteers and the concentration of ofloxacin in the periodontal fluid in the pockets was determined and compared with that in saliva obtained by oral administration thereof. In the test, the preparations of Example 3 having a thickness of 0.3 mm and width of 1 mm was cut into strips having a length of 4 mm (each containing 0.06 mg of ofloxacin). The strip was inserted into a periodontal pocket of each volunteer. The probing depth of the pocket was 5 mm. After a given time, a filter paper having a width of 1 mm was inserted into the pocket to take the periodontal fluid out of the pocket. The amount of ofloxacin in the periodontal fluid was determined from the diameter of an inhibition circle according to an agar plate diffusion method with E. coli K 12. The quantity of the periodontal fluid thus taken out was determined from a calibration curve prepared from the quantity of a previously prepared liquid sample and the wetted area of the filter paper. The concentration of ofloxacin was thus determined. The time profile of the concentration of ofloxacin in saliva in the oral administration was taken from a report of Morihana et al. (Chemotherapy, 32: Sl, 1070, 1984)."}, "[2]": {"tested_on": "dogs", "conditions": "cited from earlier work"}, "[3]": {"tested_on": "monkeys", "conditions": "cited from earlier work"}, "[4]": {"conditions": "cited from earlier work; for average concentration of ofloxacin in saliva: oral, 200 mg/body, 8 subjects"}}, "note": "Read-outs that look alike come from different tables or passages of the source."}
{"molecule": "CC1COc2c(N3CCN(C)CC3)c(F)cc3c(=O)c(C(=O)O)cn1c23", "note": "(stereo not drawn) [ofloxacin, 9-fluoro-2,3-dihydro-3-methyl-10-(4-methyl-1-piperazinyl)-7-oxo-7H-pyrido[1,2,3-de][1,4]benzoxazine-6-carboxylic acid]", "values": [{"measurement": "time for which concentration in the pocket was maintained above 70 μg/ml", "setting": "[1]; 0.06 mg inserted into the periodontal pocket", "result": "> 5", "unit": "h"}, {"measurement": "concentration at 5 h", "setting": "[1]; human, periodontal fluid, 0.06 mg inserted into the periodontal pocket, for longer than 5 h, read-out: concentration in the pocket maintained", "result": "> 70000", "unit": "ng/mL"}, {"measurement": "concentration at 24 h", "setting": "[1]; human, periodontal fluid, 0.06 mg/pocket, 24 h, 8 pockets of 4 subjects", "result": 16600, "unit": "ng/mL"}, {"measurement": "Acute toxicity (LD50 in oral administration)", "setting": "[2]", "result": "≥ 200", "unit": "mg/kg"}, {"measurement": "Acute toxicity (LD50 in oral administration)", "setting": "[3]", "result": "500 to 1,000 mg/kg"}, {"measurement": "maximum concentration in saliva", "setting": "[4]; oral administration of 200 mg, in 3 hours", "result": 1.8, "unit": "µg/mL"}, {"measurement": "time of maximum concentration in saliva", "setting": "[4]; oral administration of 200 mg", "result": 3, "unit": "h"}, {"measurement": "average concentration of ofloxacin in saliva", "setting": "[4]; 1 h", "result": 1.18, "unit": "µg/mL"}, {"measurement": "average concentration of ofloxacin in saliva", "setting": "[4]; 2 h", "result": 1.59, "unit": "µg/mL"}, {"measurement": "average concentration of ofloxacin in saliva", "setting": "[4]; 3 h", "result": 1.80, "unit": "µg/mL"}, {"measurement": "average concentration of ofloxacin in saliva", "setting": "[4]; 4 h", "result": 1.65, "unit": "µg/mL"}, {"measurement": "average concentration of ofloxacin in saliva", "setting": "[4]; 5 h", "result": 1.40, "unit": "µg/mL"}]}
